Consider nine molecules from PubChem BioAssay (NCI).

Experiment in all cases: inhibition of tumour cell growth, NCI panel, 48 h
The subject of assay [1] is IGROV1 ovarian.
The subject of assay [2] is SR leukemia.
Assay [3] concerns PC-3 prostate.
Assay [4] concerns MOLT-4 leukemia.
Assay [5] has as its system SF-295 CNS.
Assay [6] has as its system TK-10 renal.
For assay [7], the system named is M14 melanoma.
Assay [8] relates to OVCAR-5 ovarian.
Assay [9] relates to OVCAR-4 ovarian.
The subject of assay [10] is NCI/ADR-RES ovarian.

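Method: 48-hour compound exposure of cells in 96-well plates, five concentrations, linear interpolation of endpoints. Abbreviation: GI50, concentration required for 50% inhibition of growth. Definition used: TGI = concentration required for complete inhibition of growth.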

For `CN(C)CCCn1c2c(c3cc4c(cc3c1=O)OCO4)C(=O)c1ccccc1-2`, the GI50 in [1] is 3.33 µM; in assay [3] it was 0.365 µM; in assay [4], below 0.0218 µM; in assay [5] it was 3.12 µM; in [6], 3.42 µM; in assay [7], 0.0984 µM. For the same molecule, the figures for the GI50 in assay [8] and in assay [9] were 11.1 µM and 0.715 µM, respectively. Besides, the TGI in [1] came out at 12.6 µM; in [2], 0.0486 µM; in [3], 3.59 µM; in assay [4], 0.792 µM; in assay [5], 12.5 µM; in assay [6], 17.9 µM. The TGI was 1.38 µM in assay [7], 45.7 µM in assay [8] and above 23.3 µM in assay [9].
Consider `c1ccc2c(CNCCN3CCNCC3)c3ccccc3c(CNCCN3CCNCC3)c2c1`, for which the GI50 in assay [1] was 19.8 µM; in [10], above 100 µM; in [3], 5.86 µM; in [4], 3.88 µM; in assay [5] it was 17.8 µM; in assay [6] it was 19.7 µM. Further, the GI50 in assay [7] was 22.8 µM; in [8], 3.99 µM; in assay [9], 43.8 µM. For the same molecule, the TGI was 85.3 µM in assay [1]; above 100 µM in assay [10]; 20.3 µM in [3]; 27.5 µM in [4]; 43.5 µM in assay [5]; 79.8 µM in [6]. Besides, the TGI in assay [7] is 60.4 µM; in [8], 17.4 µM; in assay [9] it was above 100 µM.
`O=[N+]([O-])c1cc(Cc2cc([N+](=O)[O-])c3cccnc3c2O)c(O)c2ncccc12`: the TGI was 17.2 µM in assay [1]; 54.1 µM in assay [10]; 23.4 µM in assay [3]; above 30.4 µM in assay [4]; 37.2 µM in assay [5]; 48.3 µM in [6]. The TGI in [7] was 30.1 µM; in assay [8], 76.1 µM; in assay [9] it was above 74.1 µM.
In the case of `O=S(=O)(NCCCNc1nccc(-c2c(-c3ccc(F)cc3)nc3sccn23)n1)c1ccc(F)cc1`, the GI50 in [1] was 8.85 µM; in assay [10] it was 6.6 µM; in assay [3], 9.54 µM; in assay [4] it was 8.08 µM; in assay [5], 20.6 µM; in assay [6] it was 19.2 µM. In addition, the GI50 in assay [7] was 7.06 µM; in assay [8], above 100 µM; in [9], 3.53 µM. The TGI in assay [1], in assay [10], in [3], in [4], in assay [5] and in assay [6] was above 100 µM throughout. The TGI is above 100 µM in assay [7], above 100 µM in assay [8] and 26.7 µM in assay [9].
Consider `CN1CCCC1c1cccnc1.O=C(O)c1ccccc1O.O=C([O-])c1ccccc1[OH2+].O=C([O-])c1ccccc1[OH2+].[Mn+2]` (stereo not given), for which the GI50 in assay [1] is above 100 µM; in [10], above 100 µM; in assay [3], 58.1 µM; in assay [4] it was 64.9 µM; in [5], above 100 µM; in assay [6], above 100 µM. Moreover, the GI50 was above 100 µM in assay [7], 73.1 µM in assay [8] and above 100 µM in assay [9]. The TGI in assay [1], in [10], in [3], in assay [4], in [5] and in assay [6] was above 100 µM in each case. Further, the TGI in assay [7], in assay [8] and in assay [9] was above 100 µM throughout.
On to `CC1CCC2C(CN(CC3=C(C(F)(F)F)OC4OC5(C)CCC6C(C)CCC3C46OO5)CC3=C(C(F)(F)F)OC4OC5(C)CCC6C(C)CCC3C46OO5)=C(C(F)(F)F)OC3OC4(C)CCC1C32OO4` (stereo not given), for which the GI50 is 26.8 µM in assay [10]; 3.99 µM in assay [3]; 9.11 µM in assay [4]; 15.4 µM in [6]; 22.2 µM in [7]; 15.3 µM in [8]. Moreover, in assay [9], the GI50 is 10.2 µM. The TGI in [10] is 73.2 µM; in assay [3] it was 20.1 µM; in assay [4], 39.9 µM; in assay [6] it was 30 µM; in [7], 59.7 µM; in assay [8] it was above 100 µM. Besides, the TGI in [9] is 33.4 µM.
For `COC(=O)c1cc([N+](=O)[O-])cc([N+](=O)[O-])c1Cl`, the GI50 in assay [10] is 2.8 µM; in [3], 1.88 µM; in [5] it was 19.3 µM; in assay [6], 2.48 µM; in [8], 2.7 µM; in assay [9], 1.76 µM. Moreover, the TGI is 8.71 µM in assay [10]; 3.91 µM in assay [3]; 36.9 µM in [5]; 6.48 µM in [6]; 10.2 µM in assay [8]; 3.17 µM in assay [9].
Regarding `COc1ccc(/C=N\Nc2nc(SCC(C)C)nc(-c3ccc(OC)cc3)c2C#N)cc1`, the GI50 was 1.92 µM in [1]; 10.8 µM in assay [10]; 8.69 µM in [2]; 12.9 µM in [4]; 8.58 µM in assay [5]; 2.02 µM in [6]. Further, the GI50 in assay [7] was 13 µM; in assay [8], 20.4 µM; in assay [9] it was 0.417 µM. In addition, the TGI in assay [1] is 20 µM; in assay [10], 85.4 µM; in assay [2] it was 96 µM; in assay [4], above 100 µM; in assay [5], 28 µM; in assay [6] it was 8.62 µM. Moreover, the TGI in assay [7] was 92.2 µM; in [8], above 100 µM; in [9] it was 1.83 µM.
In the case of `O=C1C(Sc2ccc3ccccc3c2)=C(Sc2ccc3ccccc3c2)C(=O)c2ccccc21`, the TGI came to 44.9 µM in assay [10]; 31.8 µM in assay [3]; 5.9 µM in [4]; 23.7 µM in assay [7]; 27.1 µM in assay [8]; 15.2 µM in assay [9].
